The values below are quoted from earlier work in patent publication US8202852B2, “Creatine phosphate analog prodrugs, compositions and uses thereof” (XenoPort, Inc., priority 2006, dated 2012).

The conditions of data set [1]: animals, diet containing up to 1%.
Test in data set [2]: not given
The source holds these as a separate data set.

Read-outs that look alike come from different tables or passages of the source.

On to `NC1=NCCN1CC(=O)O` [cyclocreatine], for which, in data set [1], the adverse effects entry is reported as “do not exhibit adverse effects”.
For `CN(CC(=O)O)C(=N)NP(=O)(O)O` [creatine phosphate], where the note is “patients with cardiac diseases, intravenous injection up to 8 gm/day”, the adverse side effects entry is “without adverse side effects”.
Turning to `CN(CC(=O)O)C(=N)N` [creatine, Creatine], in data set [2] (creatine supplementation, typically takes weeks), the “overall increase in creatine phosphate levels” value is on record as less than 50%. For the same compound, in data set [2] (healthy volunteers, oral creatine administration), the “increase in cerebral creatine phosphate” value is reported as “about 10%”.
For `CN(CC(=O)O)C(=N)N.O` [creatine monohydrate], the adverse side effects result (athletes and body builders, 2-3 gm/day) is “without adverse side effects”.
